Data as given in US20230233569A1 (Revolution Medicines, Inc., priority 2020, published 2023).

What was measured:
Capan-1 (K-Ras G12V) = experiment: CellTiter-Glo cell viability assay, 5-day treatment; assay type: cell-based; details: Homo sapiens, CAPAN-1, 120 h, 5-day treatment; read-out: Capan-1 Cell Viability assay data (K-Ras G12V, IC50)
Method in brief: (§1)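 Five-day compound treatment of plated cells; luminescent read after ~30 min at RT. Percent-of-DMSO data fit to a four-parameter logistic model.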

NCI-H358 (K-Ras G12C) = experiment: as above; assay type: cell-based; details: Homo sapiens, NCI-H358, 120 h, 5-day treatment; read-out: H358 Cell Viability assay data (K-Ras G12C, IC50)
Method in brief: as §1

NRAS Q61R = NRAS Q61R (Homo sapiens, UniProt P01111+P62937, Q61R); experiment: Disruption of BRAF RBD interaction with Ras (FRET / MOA assay, with Cyclophilin A); assay type: biochemical; details: NRAS Q61R; read-out: NRAS Q61R FRET data IC50
Method in brief: (§2)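 IC50 reflects compound-driven Ras:Cyclophilin A ternary complex displacing BRAF RBD, read as lowered TR-FRET ratio relative to DMSO after Eu anti-His (10 nM) and APC anti-GST (50 nM) detection for 1.5 h. Prior incubation 3 h, 25° C, with 12.5 nM GMPPNP-loaded Ras, 50 nM BRAF RBD, 25 μM Cyclophilin A; top compound 30 μM.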

NRAS Q61K = NRAS Q61K (Homo sapiens, UniProt P01111+P62937, Q61K); experiment: as above; assay type: biochemical; details: NRAS Q61K; read-out: NRAS Q61K FRET data IC50
Method in brief: as §2

NRAS WT = NRAS WT (Homo sapiens, UniProt P01111+P62937); experiment: as above; assay type: biochemical; details: NRAS WT; read-out: NRAS WT FRET data IC50
Method in brief: as §2

KRAS Q61H = KRAS Q61H (Homo sapiens, UniProt P01116+P62937, Q61H); experiment: as above; assay type: biochemical; details: KRAS Q61H; read-out: KRAS Q61H FRET data IC50
Method in brief: as §2

KRAS G12D = KRAS G12D (Homo sapiens, UniProt P01116+P62937, G12D); experiment: as above; assay type: biochemical; details: read-out: KRAS G12D FRET data, IC50
Method in brief: (§3)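 Here, compound titrations (ten points, factor 3, from 30 μM final) act on nucleotide-bound K-Ras and Cyclophilin A, and ternary complex formation disrupts the RAF RBD interaction.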

KRAS G12S = KRAS G12S (Homo sapiens, UniProt P01116+P62937, G12S); experiment: as above; assay type: biochemical; details: read-out: KRAS G12S FRET data, IC50
Method in brief: as §3

KRAS G13D = KRAS G13D (Homo sapiens, UniProt P01116+P62937, G13D); experiment: as above; assay type: biochemical; details: KRAS G13D; read-out: KRAS G13D FRET data IC50
Method in brief: as §3

KRAS WT = KRAS WT (Homo sapiens, UniProt P01116+P62937); experiment: as above; assay type: biochemical; details: KRAS WT; read-out: KRAS WT FRET data IC50
Method in brief: as §3

KRAS G13C = KRAS G13C (Homo sapiens, UniProt P01116+P62937, G13C); experiment: as above; assay type: biochemical; details: read-out: KRAS G13C FRET data, IC50
Method in brief: as §3

NRAS G12C = NRAS G12C (Homo sapiens, UniProt P01111+P62937, G12C); experiment: as above; assay type: biochemical; details: NRAS G12C; read-out: NRAS G12C FRET data IC50
KRAS G12V = KRAS G12V (Homo sapiens, UniProt P01116+P62937, G12V); experiment: as above; assay type: biochemical; details: KRAS G12V; read-out: KRAS G12V FRET data IC50
Method in brief: as §3

KRAS G12C = KRAS G12C (Homo sapiens, UniProt P01116+P62937, G12C); experiment: as above; assay type: biochemical; details: read-out: KRAS G12C FRET data, IC50
Method in brief: as §3

Sequence of KRAS G12V (P01116 1-169 isoform P01116-2 G12V limits assumed): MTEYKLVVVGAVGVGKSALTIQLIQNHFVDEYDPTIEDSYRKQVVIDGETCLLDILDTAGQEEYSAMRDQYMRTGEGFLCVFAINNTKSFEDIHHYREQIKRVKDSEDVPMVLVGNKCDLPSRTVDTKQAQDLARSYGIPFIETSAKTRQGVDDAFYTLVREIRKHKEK
Sequence of KRAS G12V (P62937 whole entry): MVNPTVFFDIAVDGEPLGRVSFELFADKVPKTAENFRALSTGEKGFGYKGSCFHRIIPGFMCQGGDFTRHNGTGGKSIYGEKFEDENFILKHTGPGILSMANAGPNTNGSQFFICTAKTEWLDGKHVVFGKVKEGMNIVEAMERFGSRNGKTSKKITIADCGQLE
Sequence of KRAS Q61H (P01116 1-169 isoform P01116-2 Q61H limits assumed): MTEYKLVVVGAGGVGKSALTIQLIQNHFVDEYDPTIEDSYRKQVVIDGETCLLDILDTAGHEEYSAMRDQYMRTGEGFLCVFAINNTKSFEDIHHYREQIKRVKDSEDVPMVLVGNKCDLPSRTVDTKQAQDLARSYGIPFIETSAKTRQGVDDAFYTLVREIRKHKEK
Sequence of KRAS Q61H (P62937 whole entry): as the sequence (P62937 whole entry) above
Sequence of KRAS WT (P01116 1-169 isoform P01116-2 limits assumed): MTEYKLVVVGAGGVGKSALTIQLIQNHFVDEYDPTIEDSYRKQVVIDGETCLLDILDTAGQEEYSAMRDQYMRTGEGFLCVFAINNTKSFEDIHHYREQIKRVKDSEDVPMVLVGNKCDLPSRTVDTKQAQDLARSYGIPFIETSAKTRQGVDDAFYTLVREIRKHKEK
Sequence of KRAS WT (P62937 whole entry): as the sequence (P62937 whole entry) above
Sequence of NRAS Q61R (P01111 whole entry Q61R): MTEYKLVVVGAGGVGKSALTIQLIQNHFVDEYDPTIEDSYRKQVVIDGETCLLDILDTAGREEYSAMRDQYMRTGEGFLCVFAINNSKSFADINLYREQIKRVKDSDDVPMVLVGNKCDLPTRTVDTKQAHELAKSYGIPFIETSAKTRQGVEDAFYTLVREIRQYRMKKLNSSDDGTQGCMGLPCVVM
Sequence of NRAS Q61R (P62937 whole entry): as the sequence (P62937 whole entry) above
Sequence of KRAS G12D (P01116 1-169 isoform P01116-2 G12D limits assumed): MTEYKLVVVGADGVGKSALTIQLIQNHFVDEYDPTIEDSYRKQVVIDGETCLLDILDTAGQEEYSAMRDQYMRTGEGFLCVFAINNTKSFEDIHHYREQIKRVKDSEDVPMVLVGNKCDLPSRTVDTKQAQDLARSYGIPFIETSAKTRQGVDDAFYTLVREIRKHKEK
Sequence of KRAS G12D (P62937 whole entry): as the sequence (P62937 whole entry) above
Sequence of KRAS G12S (P01116 1-169 isoform P01116-2 G12S limits assumed): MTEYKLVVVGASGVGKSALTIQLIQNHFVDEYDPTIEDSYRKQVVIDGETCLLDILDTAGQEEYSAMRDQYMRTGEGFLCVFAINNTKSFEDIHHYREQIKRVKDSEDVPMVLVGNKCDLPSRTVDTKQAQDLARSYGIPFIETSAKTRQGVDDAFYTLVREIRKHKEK
Sequence of KRAS G12S (P62937 whole entry): as the sequence (P62937 whole entry) above
Sequence of KRAS G13C (P01116 1-169 isoform P01116-2 G13C): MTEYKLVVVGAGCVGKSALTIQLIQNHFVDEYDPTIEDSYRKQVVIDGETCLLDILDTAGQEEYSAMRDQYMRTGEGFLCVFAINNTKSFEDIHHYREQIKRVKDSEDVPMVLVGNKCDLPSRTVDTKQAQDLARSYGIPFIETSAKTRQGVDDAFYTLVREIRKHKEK
Sequence of KRAS G13C (P62937 whole entry): as the sequence (P62937 whole entry) above
Sequence of KRAS G12C (P01116 1-169 isoform P01116-2 G12C): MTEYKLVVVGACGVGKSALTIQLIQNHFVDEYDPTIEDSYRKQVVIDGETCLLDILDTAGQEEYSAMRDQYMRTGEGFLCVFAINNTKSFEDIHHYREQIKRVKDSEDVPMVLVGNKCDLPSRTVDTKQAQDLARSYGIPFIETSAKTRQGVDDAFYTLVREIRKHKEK
Sequence of KRAS G12C (P62937 whole entry): as the sequence (P62937 whole entry) above
Sequence of NRAS WT (P01111 whole entry): as the sequence (P01111 whole entry Q61R) above, with R61Q counted along it
Sequence of NRAS WT (P62937 whole entry): as the sequence (P62937 whole entry) above
Sequence of NRAS Q61K (P01111 whole entry Q61K): as the sequence (P01111 whole entry Q61R) above, with R61K counted along it
Sequence of NRAS Q61K (P62937 whole entry): as the sequence (P62937 whole entry) above
Sequence of NRAS G12C (P01111 whole entry G12C): as the sequence (P01111 whole entry Q61R) above, with G12C, R61Q counted along it
Sequence of NRAS G12C (P62937 whole entry): as the sequence (P62937 whole entry) above
Sequence of KRAS G13D (P01116 1-169 isoform P01116-2 G13D limits assumed): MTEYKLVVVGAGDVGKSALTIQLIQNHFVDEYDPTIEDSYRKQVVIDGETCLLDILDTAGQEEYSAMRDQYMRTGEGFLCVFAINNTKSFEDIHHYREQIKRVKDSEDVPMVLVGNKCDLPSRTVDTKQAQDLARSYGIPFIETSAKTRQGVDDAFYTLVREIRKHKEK
Sequence of KRAS G13D (P62937 whole entry): as the sequence (P62937 whole entry) above

| Compound | IC50 (Capan-1 (K-Ras G12V)) [nM] | IC50 (NCI-H358 (K-Ras G12C)) [nM] | IC50 (NRAS Q61R) [nM] | IC50 (NRAS Q61K) [nM] | IC50 (NRAS WT) [nM] | IC50 (KRAS Q61H) [nM] | IC50 (KRAS G12D) [nM] | IC50 (KRAS G12S) [nM] | IC50 (KRAS G13D) [nM] | IC50 (KRAS WT) [nM] | IC50 (KRAS G13C) [nM] | IC50 (NRAS G12C) [nM] | IC50 (KRAS G12V) [nM] | IC50 (KRAS G12C) [nM] |
| --- | --- | --- | --- | --- | --- | --- | --- | --- | --- | --- | --- | --- | --- | --- |
| CCn1c(-c2cccnc2[C@H](C)OC)c2c3cc(ccc31)-c1csc(n1)C[C@H](NC(=O)[C@H](C(C)C)N(C)C(=O)N1CCN(C(=O)CCN(C)C)CC1)C(=O)N1CCC[C@H](N1)C(=O)OCC(C)(C)C2 [Example A459] | 100 to 1000 | 10 to 100 | 10 to 100 | 10 to 100 | 10 to 100 | 10 to 100 | 100 to 1000 | 10 to 100 | 10 to 100 | 10 to 100 | 10 to 100 | 10 to 100 | 100 to 1000 | 10 to 100 |
| CCn1c(-c2cccnc2[C@H](C)OC)c2c3cc(ccc31)-c1csc(n1)C[C@H](NC(=O)[C@H](C(C)C)N(C)C(=O)N1CC(NC)C1)C(=O)N1CCC[C@H](N1)C(=O)OCC(C)(C)C2 (atropisomer, axis not shown) [Example A337] | 100 to 1000 | 10 to 100 | 100 to 1000 | 10 to 100 | 100 to 1000 | 100 to 1000 | 1000 to 10000 | 100 to 1000 | 100 to 1000 | 100 to 1000 | 100 to 1000 | 100 to 1000 | 100 to 1000 | 100 to 1000 |
| CCn1c(-c2cccnc2[C@H](C)OC)c2c3cc(ccc31)-c1csc(n1)C[C@H](NC(=O)[C@H](C(C)C)N(C)C(=O)N1CC(C3CN(C)C3)C1)C(=O)N1CCC[C@H](N1)C(=O)OCC(C)(C)C2 (atropisomer, axis not shown) [Example A608] | 10 to 100 | 100 to 1000 | 100 to 1000 | 10 to 100 | 100 to 1000 | 10 to 100 | 100 to 1000 | 100 to 1000 | 100 to 1000 | 100 to 1000 | 100 to 1000 | 10 to 100 | 100 to 1000 | 10 to 100 |
| CCn1c(-c2cccnc2[C@H](C)OC)c2c3cc(ccc31)-c1csc(n1)C[C@H](NC(=O)[C@H](C(C)C)N(C)C(=O)N1CC(n3nc(C)cc3C)C1)C(=O)N1CCC[C@H](N1)C(=O)OCC(C)(C)C2 [Example A297] | 100 to 1000 | 10 to 100 | 100 to 1000 | 100 to 1000 | 100 to 1000 | 100 to 1000 | 1000 to 10000 | 100 to 1000 | 1000 to 10000 | 100 to 1000 | 100 to 1000 | 100 to 1000 | 100 to 1000 | 100 to 1000 |
| CCn1c(-c2cccnc2[C@H](C)OC)c2c3cc(ccc31)-c1csc(n1)C[C@H](NC(=O)[C@H](C(C)C)N(C)C(=O)N1C[C@H](OC)[C@@H](N)C1)C(=O)N1CCC[C@H](N1)C(=O)OCC(C)(C)C2 (atropisomer, axis not shown) [Example A580] | 100 to 1000 | 100 to 1000 | 100 to 1000 | 10 to 100 | 100 to 1000 | 100 to 1000 | 100 to 1000 | 100 to 1000 | 100 to 1000 | 100 to 1000 | 100 to 1000 | 100 to 1000 | 100 to 1000 | 100 to 1000 |
| CCn1c(-c2cccnc2[C@H](C)OC)c2c3cc(ccc31)-c1csc(n1)C[C@H](NC(=O)[C@H](C(C)C)N(C)C(=O)N1CC3(CC(N(C)CCOC)C3)C1)C(=O)N1CCC[C@H](N1)C(=O)OCC(C)(C)C2 (atropisomer, axis not shown) [Example A532] | 10 to 100 | 10 to 100 | 100 to 1000 | 10 to 100 | 100 to 1000 | 100 to 1000 | 1000 to 10000 | 100 to 1000 | 100 to 1000 | 100 to 1000 | 100 to 1000 | 100 to 1000 | 100 to 1000 | 100 to 1000 |
| CCn1c(-c2cccnc2[C@H](C)OC)c2c3cc(ccc31)-c1csc(n1)C[C@H](NC(=O)[C@H](C(C)C)N(C)C(=O)N1CC(C(C)(C)OC)C1)C(=O)N1CCC[C@H](N1)C(=O)OCC(C)(C)C2 (atropisomer, axis not shown) [Example A614] | 10 to 100 | 10 to 100 | 100 to 1000 | 10 to 100 | 100 to 1000 | 10 to 100 | 100 to 1000 | 100 to 1000 | 100 to 1000 | 100 to 1000 | 100 to 1000 | 10 to 100 | 100 to 1000 | 10 to 100 |
| CCn1c(-c2cccnc2[C@H](C)OC)c2c3cc(ccc31)-c1csc(n1)C[C@H](NC(=O)[C@H](C(C)C)N(C)C(=O)N1CC3(CCN(C)CC3)C1)C(=O)N1CCC[C@H](N1)C(=O)OCC(C)(C)C2 [Example A513] | 10 to 100 | 10 to 100 | 100 to 1000 | 100 to 1000 | 100 to 1000 | 100 to 1000 | 1000 to 10000 | 100 to 1000 | 100 to 1000 | 100 to 1000 | 100 to 1000 | 100 to 1000 | 100 to 1000 | 100 to 1000 |
| CCn1c(-c2cccnc2[C@H](C)OC)c2c3cc(ccc31)-c1csc(n1)C[C@H](NC(=O)[C@H](C(C)C)N(C)C(=O)N1CCO[C@@H](C)C1)C(=O)N1CCC[C@H](N1)C(=O)OCC(C)(C)C2 (atropisomer, axis not shown) [Example A309] | 10 to 100 | < 10 | 10 to 100 | 10 to 100 | 10 to 100 | 10 to 100 | 100 to 1000 | 100 to 1000 | 100 to 1000 | 100 to 1000 | 100 to 1000 | 10 to 100 | 100 to 1000 | 10 to 100 |
| CCn1c(-c2cccnc2[C@H](C)OC)c2c3cc(ccc31)-c1csc(n1)C[C@H](NC(=O)[C@H](C(C)C)N(C)C(=O)N1CC(S(=O)(=O)NC)C1)C(=O)N1CCC[C@H](N1)C(=O)OCC(C)(C)C2 (atropisomer, axis not shown) [Example A549] | 10 to 100 | 10 to 100 | 100 to 1000 | 10 to 100 | 100 to 1000 | 10 to 100 | 100 to 1000 | 100 to 1000 | 100 to 1000 | 100 to 1000 | 100 to 1000 | 10 to 100 | 100 to 1000 | 10 to 100 |
| CCn1c(-c2cccnc2[C@H](C)OC)c2c3cc(ccc31)-c1csc(n1)C[C@H](NC(=O)[C@H](C(C)C)N(C)C(=O)N1CC([C@H](C)NC)C1)C(=O)N1CCC[C@H](N1)C(=O)OCC(C)(C)C2 [Example A535] | 100 to 1000 | 100 to 1000 | 100 to 1000 | 100 to 1000 | 100 to 1000 | 100 to 1000 | 1000 to 10000 | 100 to 1000 | 100 to 1000 | 100 to 1000 | 100 to 1000 | 100 to 1000 | 100 to 1000 | 100 to 1000 |
| CCn1c(-c2cccnc2[C@H](C)OC)c2c3cc(ccc31)-c1csc(n1)C[C@H](NC(=O)[C@H](C(C)C)N(C)C(=O)N1CCCC[C@@H](N(C)C)C1)C(=O)N1CCC[C@H](N1)C(=O)OCC(C)(C)C2 [Example A492] | 100 to 1000 | 10 to 100 | 100 to 1000 | 100 to 1000 | 100 to 1000 | 10 to 100 | 100 to 1000 | 100 to 1000 | 100 to 1000 | 100 to 1000 | 100 to 1000 | 100 to 1000 | 100 to 1000 | 100 to 1000 |
